Tested on: Collagen-induzierte Thrombozytenaggregation
Assay: Ex vivo inhibition of collagen-induced platelet aggregation after oral administration (Born and Cross photometric method)
Settings: oral 3 mg/kg, suspended in Natrosol; Rhesusaffen; Collagen 2 µg/ml in platelet-rich plasma
Text: Beispielsweise wurden die Verbindungen der allgemeinen Formel I auf ihre biologischen Wirkungen wie folgt untersucht: Die Hemmung der Thrombozytenaggregation nach oraler Gabe der Prüfsubstanz wird ex vivo an Rhesusaffen ermittelt.
Direkt vor der oralen Verabreichung der in Natrosol suspendierten Prüfsubstanz wird den Tieren eine Blutprobe aus der Kubitalvene als Referenzwert entnommen. Zu definierten Zeiten nach der Substanzgabe werden erneut Blutproben gewonnen und wie folgt untersucht.
Das mit 3,14% Natriumcitrat im Volumenverhältnis 1:10 versetzte Vollblut wird mit 200 g für 15 Minuten zentrifugiert. Der Überstand an plättchenreichem Plasma wird vorsichtig abgehoben. Aus dem erythrozytenreichen Sediment wird durch Zentrifugation mit 4000 g für 10 Minuten das plättchenarme Plasma als Überstand gewonnen.
Die mit Collagen (Hormonchemie, München; 2 µg/ml Endkonzentration im plättchenreichen Plasma) ausgelöste Thrombozytenaggregation in diesen ex vivo Proben wird nach der Methode von Born und Cross (J. Physiol. 170, 397 (1964)) photometrisch gemessen. Die nach Collagenstimulation gemessene größte Lichtdurchlässigkeit des plättchenreichen Plasmas wird mit dem Referenzwert verglichen, um die Hemmung der Aggregation zu den verschiedenen Zeitpunkten der Blutentnahme nach Substanzgabe relativ zum Referenzwert zu bestimmen.

Cl.N=C(N)c1ccc(-c2ccc(C(=O)N3CCC(CC(=O)OC4CCCCC4)CC3)cc2)cc1 [Beispiel 1, 4-Amidino-4'-[4-(cyclohexyloxycarbonylmethyl)-piperidinocarbonyl]-biphenyl-hydrochlorid]
Dauer der Hemmung der Collagen-induzierten Thrombozytenaggregation ex vivo: > 4 Stunden
